Read-outs that look alike come from different tables or passages of the source. Where a SMILES comes first, the peptide text is derived from it. The star is where a group is joined. Piv = CC(C)(C)C(=O)* Where only a bound is given, the exact number is not on record here.

Data set [1] deals with SARS-CoV-2 clinical strain UC-1075. The conditions noted are these: clinical strain UC-1075, 24 h.
Data set [2] deals with human embryonic lung (HEL) fibroblasts. Kind of data set: Cytotoxicity, cell morphology (MCC) in HEL cells.
Data set [3] deals with human cytomegalovirus (HCMV) strain Davis. Particulars: read-out: Antiviral Activity (EC50) Davis Strain; HEL cells, virus input 100 CCID50.
The target of data set [4] is T1, recombinant SARS-CoV-2 M^pro (Severe acute respiratory syndrome coronavirus 2, UniProt P0DTD1).
T1 construct: The virus enzyme, called 3CLpro or main protease (M^pro), is essential for viral replication; purchased Proteros
The format is biochemical. The conditions noted are these: relative to concentration range 0.1–1 µM.

Data set [5] can be described thus: in vitro. Particulars: African green monkey.
Data set [6] relates to human cytomegalovirus (HCMV) strain AD-169. Particulars: read-out: Antiviral Activity (EC50) AD-169 Strain; HEL cells, virus input 100 CCID50.
In data set [7] the test system is varicella-zoster virus (VZV) wild-type strain Oka. Particulars: read-out: Antiviral Activity (EC50) TK+ VZV Strain OKA; HEL cells, virus input 20 PFU.
Data set [8] has as its system thymidine kinase deficient (TK−) VZV strain 07−1. Particulars: read-out: Antiviral Activity (EC50) TK-VZV Strain 07–1; HEL cells, virus input 20 PFU.
Data set [9] relates to SARS-CoV-2 clinical strain UC-1074. The conditions noted are these: for EC50: clinical strain UC-1074, 24 h; for activity against SARS-CoV-2 (in words): Vero cells, strains UC-1074 and UC-1075.
The subject of data set [10] is Vero cells.
Data set [11] deals with varicella-zoster virus (VZV) wild-type strain Oka. Kind of data set: microbe, parasite or virus in culture. Particulars: Human alphaherpesvirus 3, HEL, read-out: Antiviral Activity (EC50) TK+ VZV Strain OKA.
Data set [12] relates to human embryonic lung (HEL) fibroblasts. Kind of data set: Cytostatic activity, cell growth (CC50) in HEL cells. The conditions noted are these: read-out: Cytotoxicity Cell Growth (CC50); HEL cells, Table 3 (VZV tests).
Test in data set [13]: as above
The conditions noted are these: human, HEL 299 human embryonic lung fibroblasts.

Data set [14] has as its system human cytomegalovirus (HCMV) strain Davis. Kind of data set: microbe, parasite or virus in culture. The conditions noted are these: Human betaherpesvirus 5, HEL, read-out: Antiviral Activity (EC50) Davis Strain.
The test system of data set [15] is human cytomegalovirus (HCMV) strain AD-169. Kind of data set: microbe, parasite or virus in culture. The conditions noted are these: Human betaherpesvirus 5, AD169, HEL, read-out: Antiviral Activity (EC50) AD-169 Strain.
The subject of data set [16] is SARS-CoV-2. Particulars: read-out: EC50 (reported value); cited from earlier work.
Data set [17] deals with SARS-CoV-2 clinical strain UC-1075. Kind of data set: microbe, parasite or virus in culture. Particulars: Severe acute respiratory syndrome coronavirus 2, UC1075, Vero, 120 h, read-out: Antiviral Activity (EC50) UC-1075.
For data set [18], the system named is SARS-CoV-2 clinical strain UC-1074. Kind of data set: microbe, parasite or virus in culture. Particulars: Severe acute respiratory syndrome coronavirus 2, UC1074, Vero, 120 h, read-out: Antiviral Activity (EC50) UC-1074.

Turning to `CC(C)C[C@H](NC(=O)[C@@H](NC(=O)CNC(=O)CN)C(C)C)C(=O)N[C@H](C(=O)N[C@@H](CCC(N)=O)C(=O)N1CCC[C@H]1C(=O)NCC(=O)O)C(C)C` [AT1001 (1), Larazotide acetate, reference compound] (H-GGVLVQPG-OH), the EC50 in [1] is above 20 µM; in [3] it was above 20 µM; in data set [6], above 20 µM; in [7], 44.1 µM; in [8] it was 59.1 µM; in data set [9], above 20 µM. For the same compound, the “Cytotoxicity Cell Morphology (MCC)” value in data set [2] (Table 2 (HCMV tests)) was at least 100 µM; in [2] (Table 3 (VZV tests)), at least 100 µM; in [10], 100 µM. The Inhibition in data set [4] is 27.7 ± 0.2%. In addition, in [5], the CC50 is 82.5 ± 6.2 µM.

Turning to `Nc1nc2c(ncn2COCCO)c(=O)[nH]1` [Aciclovir], the EC50 in [11] was 8.39 µM.

Consider `O=c1[nH]c(=O)n([C@H]2C[C@H](O)[C@@H](CO)O2)cc1/C=C/Br` [Birivudine, reference compound], for which the “Cytotoxicity Cell Morphology (MCC)” value in [2] (Table 3 (VZV tests)) was above 300.3 µM. The CC50 in [12] is above 300 µM. Moreover, the EC50 turned out to be 0.23 ± 0.04 µM in [7] and 2.13 µM in data set [8].

As for `Nc1ccn(C[C@@H](CO)OCP(=O)(O)O)c(=O)n1` [Cidofovir], in [2] (Table 2 (HCMV tests)), the “Cytotoxicity Cell Morphology (MCC)” value is listed as at least 317 µM. In [13], the CC50 at 3 days came out at 159 ± 76.5 µM. Besides, the EC50 in [14] came to 0.67 ± 0.49 µM; in [15], 1.27 ± 0.18 µM.

For `Nc1nc(O)c2ncn(COC(CO)CO)c2n1` [Ganciclovir], the “Cytotoxicity Cell Morphology (MCC)” value in data set [2] (Table 2 (HCMV tests)) was at least 394 µM. In data set [13], this compound returned a CC50 at 3 days of 350 µM. Besides, the EC50 was determined as 1.18 µM in data set [14] and 2.56 ± 0.23 µM in data set [15].

For the compound `CC(=O)NCC(=O)NCC(=O)N[C@H](C(=O)N[C@@H](CC(C)C)C(=O)N[C@H](C(=O)N[C@@H](CCC(N)=O)C(=O)N1CCC[C@H]1C(=O)NCC(N)=O)C(C)C)C(C)C` [Peptide 2] (Ac-GGVLVQPG-NH2), the EC50 was above 20 µM in data set [1]; above 20 µM in data set [3]; above 20 µM in [6]; 50.1 µM in [7]; 48.4 µM in data set [8]. The “Cytotoxicity Cell Morphology (MCC)” value in data set [2] (Table 2 (HCMV tests)) was at least 20 µM; in [2] (Table 3 (VZV tests)), above 100 µM; in data set [10] (Vero cells), 100 µM. Besides, the Inhibition in data set [4] was determined as 27.1 ± 0.5%. The CC50 in [5] was found to be 83 ± 17 µM.

Turning to `CNC(=O)CNC(=O)[C@@H]1CCCN1C(=O)[C@H](CCC(N)=O)NC(=O)[C@@H](NC(=O)[C@H](CC(C)C)NC(=O)[C@@H](NC(=O)CNC(=O)CNC(C)=O)C(C)C)C(C)C` [Peptide 3] (Ac-GGVLVQPG-NHMe), the EC50 was above 20 µM in data set [1]; above 100 µM in [3]; above 20 µM in [6]; 58.1 µM in data set [7]; 81.1 µM in data set [8]; above 20 µM in data set [9]. Also, the “Cytotoxicity Cell Morphology (MCC)” value is listed as at least 20 µM in [2] (Table 2 (HCMV tests)), above 100 µM in data set [2] (Table 3 (VZV tests)) and 100 µM in [10] (Vero cells). Further, the Inhibition in [4] is reported as 27.4 ± 1.1%. Besides, the CC50 in data set [5] stood at 81.8 ± 2.1 µM. For the same compound, in data set [9], the “activity against SARS-CoV-2 (in words)” value is given as “negligible activity”.

In the case of `CNC(=O)CNC(=O)[C@@H]1CCCN1C(=O)[C@H](CCC(N)=O)NC(=O)[C@@H](NC(=O)[C@H](CC(C)C)NC(=O)[C@@H](NC(=O)CNC(=O)CNC(=O)C(C)(C)C)C(C)C)C(C)C` [Peptide 4] (Piv-GGVLVQPG-NHMe), the EC50 was above 20 µM in data set [1]; 100 µM in data set [3]; above 20 µM in [6]; 78.2 µM in [7]; above 100 µM in [8]; at least 20 µM in [9]. Also, the figures for the “Cytotoxicity Cell Morphology (MCC)” value in data set [2] (Table 2 (HCMV tests)), in data set [2] (Table 3 (VZV tests)) and in [10] (Vero cells) were 100 µM, at least 100 µM and 100 µM, respectively. The Inhibition in data set [4] is 26.2 ± 0.3%. Also, the CC50 in data set [5] was 74.9 ± 4.9 µM.

As to `CNC(=O)[C@H](CCC(N)=O)NC(=O)[C@@H](NC(=O)[C@H](CC(C)C)NC(=O)[C@@H](NC(=O)CNC(C)=O)C(C)C)C(C)C` [Peptide 5, Ac-GVLVQ-NHCH3] (Ac-GVLVQ-NHMe), the EC50 in data set [1] is above 20 µM; in data set [3], above 100 µM; in data set [6] it was above 20 µM; in [7] it was 59.8 µM; in data set [8], above 100 µM; in [9], above 20 µM. Besides, the results for the “Cytotoxicity Cell Morphology (MCC)” value in data set [2] (Table 2 (HCMV tests)), in [2] (Table 3 (VZV tests)) and in data set [10] (Vero cells) were at least 100 µM, above 100 µM and 100 µM, respectively. For the same compound, the Inhibition in [4] came out at 27.0 ± 1.1%. Further, the CC50 in [5] worked out at 75 ± 2.2 µM. Moreover, the “activity against SARS-CoV-2 (in words)” value in [9] is on record as “negligible activity”.

For the compound `CNC(=O)[C@@H](NC(=O)[C@H](CC(C)C)NC(=O)[C@@H](NC(=O)CNC(C)=O)C(C)C)C(C)C` [Peptide 6, Ac-GVLV-NHCH3] (Ac-GVLV-NHMe), the EC50 was above 20 µM in [1]; above 20 µM in data set [3]; above 4 µM in [6]; above 20 µM in data set [7]; above 20 µM in [8]; at least 20 µM in data set [9]. For the same compound, the “Cytotoxicity Cell Morphology (MCC)” value in [2] (Table 2 (HCMV tests)) is recorded as at least 20 µM; in data set [2] (Table 3 (VZV tests)), 100 µM; in data set [10] (Vero cells) it was 100 µM. For the same compound, the Inhibition in data set [4] was found to be 25.0 ± 0.5%. In data set [5], the CC50 was determined as 77.4 ± 0.7 µM.

Turning to `Cc1cc(C(=O)NC(C)C(=O)NC(C(=O)NC(CC(C)C)C(=O)NC(C=CC(=O)OCc2ccccc2)CC2CCNC2=O)C(C)C)no1` (stereo not shown) [Peptide N3], the half-maximal effective concentration (EC50) in [16] was 16.8 ± 1.7 µM.

For `CCC(CC)COC(=O)[C@H](C)N[P@](=O)(OC[C@H]1O[C@@](C#N)(c2ccc3c(N)ncnn23)[C@H](O)[C@@H]1O)Oc1ccccc1` [Remdesivir, reference compound], the EC50 in data set [17] amounted to 1.06 ± 0.44 µM; in data set [18], 0.89 ± 0.44 µM. Moreover, in [5], the CC50 is 70.6 ± 4.9 µM. In addition, the “Cytotoxicity Cell Morphology (MCC)” value in [10] (Vero cells) is recorded as 100 µM.

Broadly, the EC50 is the concentration giving half of the maximal effect. What is called Inhibition is the percentage by which the read-out fell short of the control.

Source of the values: PMC8431481, “Peptide Derivatives of the Zonulin Inhibitor Larazotide (AT1001) as Potential Anti SARS-CoV-2: Molecular Modelling, Synthesis and Bioactivity Evaluation” (International Journal of Molecular Sciences, 2021).
